# Key:
# Test in all cases: relative viability (nuclei count vs DMSO), 5 days (fraction); higher = more cells survive
# 201T = system: 201T
# Procedure, shortened: (§1)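 Dosing by pin tool came one day after lung cancer cell lines were seeded in 1536-well plates, using either one drug or a fixed anchor-drug dose plus five library-drug doses (not always all listed) in √10 steps. After 5 days, nuclei were counted on 4× images. Relative viability is treated-well nuclei count divided by vehicle-well nuclei count, and values are medians of duplicate plates.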
# A-427 = system: A-427
# Procedure, shortened: as §1
# COR-L23 = system: COR-L23
# Procedure, shortened: as §1
# H3255 = system: H3255
# Procedure, shortened: as §1
# HCC-44 = system: HCC-44
# Procedure, shortened: as §1
# LC-2-ad = system: LC-2-ad
# Procedure, shortened: as §1
# LCLC-97TM1 = system: LCLC-97TM1
# Procedure, shortened: as §1
# LK-2 = system: LK-2
# Procedure, shortened: as §1
# LU99A = system: LU99A
# Procedure, shortened: as §1
# NCI-H1650 = system: NCI-H1650
# Procedure, shortened: as §1
# NCI-H1793 = system: NCI-H1793
# Procedure, shortened: as §1
# NCI-H2228 = system: NCI-H2228
# Procedure, shortened: as §1
# NCI-H2347 = system: NCI-H2347
# Procedure, shortened: as §1
# NCI-H23 = system: NCI-H23
# Procedure, shortened: as §1
# NCI-H460 = system: NCI-H460
# Procedure, shortened: as §1
# NCI-H596 = system: NCI-H596
# Procedure, shortened: as §1
# NCI-H727 = system: NCI-H727
# Procedure, shortened: as §1
# PC-14 = system: PC-14
# Procedure, shortened: as §1
# PC-3 [JPC-3] = system: PC-3 [JPC-3]
# Procedure, shortened: as §1
# SW 1573 = system: SW 1573
# Procedure, shortened: as §1
smiles,measurement,setting,value
O=c1cc(N2CCOCC2)oc2c(-c3cccc4c3sc3ccccc34)cccc12 + CC1(C)CCC(c2ccc(Cl)cc2)=C(CN2CCN(c3ccc(C(=O)NS(=O)(=O)c4ccc(N[C@H](CCN5CCOCC5)CSc5ccccc5)c(S(=O)(=O)C(F)(F)F)c4)cc3)CC2)C1 [Navitoclax] (partner 0.5 µM),relative viability,201T; first compound 0.01 µM,1.2
same,relative viability,201T; first compound 0.03162 µM,1.17
same,relative viability,201T; first compound 0.1 µM,1.19
same,relative viability,201T; first compound 0.3162 µM,1.19
same,relative viability,201T; first compound 1 µM,1.18
same,relative viability,A-427; first compound 0.01 µM,0.937
same,relative viability,A-427; first compound 0.03162 µM,0.935
same,relative viability,A-427; first compound 0.1 µM,0.956
same,relative viability,A-427; first compound 0.3162 µM,0.866
same,relative viability,A-427; first compound 1 µM,0.959
same,relative viability,COR-L23; first compound 0.01 µM,1
same,relative viability,COR-L23; first compound 0.03162 µM,1.02
same,relative viability,COR-L23; first compound 0.1 µM,0.976
same,relative viability,COR-L23; first compound 0.3162 µM,1.05
same,relative viability,COR-L23; first compound 1 µM,0.98
same,relative viability,H3255; first compound 0.01 µM,0.557
same,relative viability,H3255; first compound 0.03162 µM,0.5
same,relative viability,H3255; first compound 0.1 µM,0.555
same,relative viability,H3255; first compound 0.3162 µM,0.54
same,relative viability,H3255; first compound 1 µM,0.527
same,relative viability,HCC-44; first compound 0.01 µM,0.854
same,relative viability,HCC-44; first compound 0.03162 µM,0.94
same,relative viability,HCC-44; first compound 0.1 µM,0.963
same,relative viability,HCC-44; first compound 0.3162 µM,0.887
same,relative viability,HCC-44; first compound 1 µM,0.931
same,relative viability,LC-2-ad; first compound 0.01 µM,0.646
same,relative viability,LC-2-ad; first compound 0.1 µM,0.543
same,relative viability,LC-2-ad; first compound 0.3162 µM,0.546
same,relative viability,LC-2-ad; first compound 1 µM,0.386
same,relative viability,LCLC-97TM1; first compound 0.01 µM,0.391
same,relative viability,LCLC-97TM1; first compound 0.03162 µM,0.568
same,relative viability,LCLC-97TM1; first compound 0.3162 µM,0.362
same,relative viability,LCLC-97TM1; first compound 1 µM,0.346
same,relative viability,LK-2; first compound 0.01 µM,0.882
same,relative viability,LK-2; first compound 0.03162 µM,0.886
same,relative viability,LK-2; first compound 0.1 µM,0.896
same,relative viability,LK-2; first compound 0.3162 µM,0.874
same,relative viability,LK-2; first compound 1 µM,1.07
same,relative viability,LU99A; first compound 0.01 µM,0.887
same,relative viability,LU99A; first compound 0.03162 µM,0.955
same,relative viability,LU99A; first compound 0.1 µM,0.884
same,relative viability,LU99A; first compound 0.3162 µM,0.773
same,relative viability,LU99A; first compound 1 µM,0.898
same,relative viability,NCI-H1650; first compound 0.03162 µM,1.07
same,relative viability,NCI-H1650; first compound 0.1 µM,1.07
same,relative viability,NCI-H1650; first compound 0.3162 µM,1.47
same,relative viability,NCI-H1650; first compound 1 µM,1.07
same,relative viability,NCI-H1793; first compound 0.01 µM,0.471
same,relative viability,NCI-H1793; first compound 0.03162 µM,0.468
same,relative viability,NCI-H1793; first compound 0.1 µM,0.54
same,relative viability,NCI-H1793; first compound 0.3162 µM,0.367
same,relative viability,NCI-H1793; first compound 1 µM,0.382
same,relative viability,NCI-H2228; first compound 0.03162 µM,0.895
same,relative viability,NCI-H2228; first compound 0.1 µM,1.16
same,relative viability,NCI-H2228; first compound 0.3162 µM,0.897
same,relative viability,NCI-H2228; first compound 1 µM,1.19
same,relative viability,NCI-H2347; first compound 0.01 µM,1.11
same,relative viability,NCI-H2347; first compound 0.03162 µM,0.804
same,relative viability,NCI-H2347; first compound 0.1 µM,0.844
same,relative viability,NCI-H2347; first compound 0.3162 µM,0.754
same,relative viability,NCI-H2347; first compound 1 µM,0.897
same,relative viability,NCI-H23; first compound 0.01 µM,0.981
same,relative viability,NCI-H23; first compound 0.03162 µM,0.846
same,relative viability,NCI-H23; first compound 0.3162 µM,0.832
same,relative viability,NCI-H23; first compound 1 µM,0.777
same,relative viability,NCI-H460; first compound 0.01 µM,1.06
same,relative viability,NCI-H460; first compound 0.03162 µM,1.07
same,relative viability,NCI-H460; first compound 0.1 µM,1.28
same,relative viability,NCI-H460; first compound 0.3162 µM,1.04
same,relative viability,NCI-H460; first compound 1 µM,1.12
same,relative viability,NCI-H596; first compound 0.01 µM,0.928
same,relative viability,NCI-H596; first compound 0.03162 µM,0.945
same,relative viability,NCI-H596; first compound 0.1 µM,0.841
same,relative viability,NCI-H596; first compound 0.3162 µM,0.967
same,relative viability,NCI-H596; first compound 1 µM,1.17
same,relative viability,NCI-H727; first compound 0.01 µM,0.47
same,relative viability,NCI-H727; first compound 0.03162 µM,0.512
same,relative viability,NCI-H727; first compound 0.1 µM,0.39
same,relative viability,NCI-H727; first compound 0.3162 µM,0.398
same,relative viability,NCI-H727; first compound 1 µM,0.438
same,relative viability,PC-14; first compound 0.01 µM,1.09
same,relative viability,PC-14; first compound 0.03162 µM,0.95
same,relative viability,PC-14; first compound 0.1 µM,1.08
same,relative viability,PC-14; first compound 0.3162 µM,1.07
same,relative viability,PC-14; first compound 1 µM,1.03
same,relative viability,PC-3 [JPC-3]; first compound 0.01 µM,0.824
same,relative viability,PC-3 [JPC-3]; first compound 0.03162 µM,0.784
same,relative viability,PC-3 [JPC-3]; first compound 0.1 µM,0.795
same,relative viability,PC-3 [JPC-3]; first compound 0.3162 µM,0.783
same,relative viability,PC-3 [JPC-3]; first compound 1 µM,0.777
same,relative viability,SW 1573; first compound 0.01 µM,1.04
same,relative viability,SW 1573; first compound 0.03162 µM,1
same,relative viability,SW 1573; first compound 0.1 µM,1.15
same,relative viability,SW 1573; first compound 0.3162 µM,1.06
same,relative viability,SW 1573; first compound 1 µM,0.832

# — the supplement of paper PMC10307832
